Here are results for two molecules from US20260297060A1, “COMPOUNDS FOR THE DEGRADATION OF MUTANT BRAF” (C4 THERAPEUTICS, INC., priority 2023, published 2026).

Read-outs that look alike come from different tables or passages of the source.

This data set in a line: Example 8 pharmacokinetics assay for PKPD study (plasma, tumor, liver). In kind it is in vivo, BALB/c nude mice. The settings on record: 10 mg/kg, p.o., single dose; for concentration at 6 h / concentration at 1 h / concentration at 12 h / concentration at 24 h: mouse, po. The method, then:
For the PK and PD study, agents were administered to BALB/c nude mice bearing A375 human melanoma xenografts tumors. encorafenib, Compound 8, Compound 26, Compound 38, and Compound 39 were dosed p.o. once on day 1. Encorafenib was dosed at 35 mg/kg, Compound 8, Compound 26, Compound 38, and Compound 39 were dosed at 10 mg/kg. This study was non-GLP.
The plasma samples were collected at predetermined time points for PK analysis. For non-termination plasma collection, blood samples were collected into the 1.5 mL Eppendorf tubes containing 3 μL of 0.5 M EDTA-K2. For termination plasma collection, the mice were euthanized at predetermined time points post the treatment and the blood samples were collected into the 1.5 mL Eppendorf tubes containing 15 μL of 0.5 M EDTA-K2. And then the anticoagulant blood samples were centrifuged at 2,500 g at 4° C. for 15 minutes. The plasma samples were separated into 2 aliquots. The 1st was used for PK analysis, and the 2nd served as backup. The samples were stored at −80° C. before bioanalysis.
The tumor samples were collected at predetermined time points for PK and WB analysis. The tumor was dissected out and split into 3 parts. The 1st part was used for PK analysis, the 2nd part was used for WB analysis and the last one served as backup for study. The samples were transferred into pre-labeled tubes and quickly froze in liquid nitrogen within 2 minutes after dissection. The samples were stored at −80° C. before bioanalysis.
Liver samples were collected at predetermined time points for PK analysis. The left lobe of the liver was dissected out and split into 2 parts. The 1st part was used for PK analysis and the 2nd part served as the backup for the study. The samples were transferred into pre-labeled tubes and quickly froze in liquid nitrogen within 2 minutes after dissection. The samples were stored at −80° C. before bioanalysis.
The harvested plasma and liver samples were processed for pharmacokinetics analysis by LC-MS/MS with a concentration range of 0.200~200 ng/mL for encorafenib in plasma and liver homogenate, and 0.100-100 ng/ml in tumor homogenate, 1.00-1000 ng/mL for Compound 8 in plasma and 0.500~500 ng/ml in tumor and liver homogenate, 50.0~50,000 ng/mL for Compound 26 and Compound 38 in plasma, 5.0~5000 ng/ml in liver and 2.00~2000 ng/ml in tumor homogenate, 1.00-1000 ng/mL for Compound 39 in plasma and 0.500~500 ng/mL in liver and tumor homogenate.

Setting [1] is: liver, read-out: Concentration in Liver (mean ± SEM).
[2] abbreviates: plasma, read-out: Concentration in Plasma (mean ± SEM).
The mark [3] stands for this setting: plasma, 12 h, read-out: Concentration in Plasma (mean ± SEM).
Where [4] appears, read: tumor, read-out: Concentration in Tumor (mean ± SEM).
Setting [5] is: tumor, 12 h, read-out: Concentration in Tumor (mean ± SEM).

`CCN(C)S(=O)(=O)Nc1ccc(F)c(Oc2ccc3ncn([C@H]4COC5(CCC(N6CCC(c7cc8c(cc7F)c(N7CCC(=O)NC7=O)nn8C)C(F)(F)C6)CC5)C4)c(=O)c3c2)c1C#N` (single isomer, unassigned) [Compound 38]: the “Concentration in Liver (mean ± SEM)” value (12 h, 720 min) is listed as 11243 ± 2595 ng/g. For the same molecule, the “Concentration in Plasma (mean ± SEM)” value (24 h, 1440 min) stood at 1797 ± 63.3 ng/mL. Further, the “Concentration in Tumor (mean ± SEM)” value (24 h, 1440 min) was 369 ± 42.6 ng/g. The concentration at 6 h under setting [1] stood at 25500 ± 3820 ng/g, the concentration at 6 h under setting [2] stood at 16400 ± 1500 ng/mL and the concentration at 6 h under setting [4] is 3830 ± 736 ng/g. Besides, the concentration at 1 h reads like this: under setting [2], 32000 ± 3960 ng/mL; under setting [4], 3320 ± 523 ng/g. In addition, the concentration at 12 h is, setting by setting: under setting [3], 6810 ± 795 ng/mL; under setting [5], 1990 ± 415 ng/g.
Regarding `CCN(C)S(=O)(=O)Nc1ccc(F)c(Oc2ccc3ncn(C4CC5(CCN(C6CCC(c7cc8c(cc7F)c(N7CCC(=O)NC7=O)nn8C)CC6)CC5)C4)c(=O)c3c2)c1C#N` (single isomer, unassigned) [Compound 8, 6-[2-cyano-3-[[ethyl(methyl)sulfamoyl]amino]-6-fluoro-phenoxy]-3-[7-[4-[3-(2,4-dioxohexahydropyrimidin-1-yl)-5-fluoro-1-methyl-indazol-6-yl]cyclohexyl]-7-azaspiro[3.5]nonan-2-yl]-4-oxo-quinazoline], the concentration at 6 h runs as follows: under setting [1], 379 ± 79.8 ng/g; under setting [2], 339 ± 60.3 ng/mL; under setting [4], 139 ± 21.7 ng/g. The concentration at 12 h was 74.8 ± 11.3 ng/g (liver, 12 h, read-out: Concentration in Liver (mean ± SEM)); 64.7 ± 16.8 ng/mL under setting [3]; 39.1 ± 5.77 ng/g under setting [5]. In addition, the concentration at 1 h under setting [2] worked out at 2940 ± 149 ng/mL and the concentration at 1 h under setting [4] amounted to 394 ± 17.6 ng/g. Moreover, the concentration at 24 h is, setting by setting: (plasma, 24 h, read-out: Concentration in Plasma (mean ± SEM)) 1.27 ± 0.2 ng/mL; (tumor, 24 h, read-out: Concentration in Tumor (mean ± SEM)) 8.52 ng/g.
